Our source for the AC50 values is ChEMBL document CHEMBL5291721, “A preclinical secondary pharmacology resource illuminates target-adverse drug reaction associations of marketed drugs” (Nat Commun, 2023).

For orientation: AC50 means the concentration at which the activity in the assay is half-maximal.

The target in assay [1] is Receptor tyrosine-protein kinase erbB-2 (Homo sapiens, UniProt P04626). The format is functional.
For assay [2], the target named is T1, Muscarinic acetylcholine receptor M1 (Homo sapiens, UniProt P11229).
T1 sequence (P11229 whole entry): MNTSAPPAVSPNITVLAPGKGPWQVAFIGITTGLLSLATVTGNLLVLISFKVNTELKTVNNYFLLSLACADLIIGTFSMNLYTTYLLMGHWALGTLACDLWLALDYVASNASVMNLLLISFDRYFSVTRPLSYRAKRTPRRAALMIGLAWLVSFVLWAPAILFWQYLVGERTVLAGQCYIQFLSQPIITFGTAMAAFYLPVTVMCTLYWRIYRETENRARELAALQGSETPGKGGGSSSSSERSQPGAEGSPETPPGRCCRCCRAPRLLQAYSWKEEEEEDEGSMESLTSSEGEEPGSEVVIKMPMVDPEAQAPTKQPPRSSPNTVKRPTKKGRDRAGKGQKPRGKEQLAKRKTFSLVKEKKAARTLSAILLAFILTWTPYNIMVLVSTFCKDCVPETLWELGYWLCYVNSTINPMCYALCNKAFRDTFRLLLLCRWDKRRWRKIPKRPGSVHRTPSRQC
In kind it is functional.

The target in assay [3] is T2, B1 bradykinin receptor (Homo sapiens, UniProt P46663).
T2 sequence (P46663 whole entry): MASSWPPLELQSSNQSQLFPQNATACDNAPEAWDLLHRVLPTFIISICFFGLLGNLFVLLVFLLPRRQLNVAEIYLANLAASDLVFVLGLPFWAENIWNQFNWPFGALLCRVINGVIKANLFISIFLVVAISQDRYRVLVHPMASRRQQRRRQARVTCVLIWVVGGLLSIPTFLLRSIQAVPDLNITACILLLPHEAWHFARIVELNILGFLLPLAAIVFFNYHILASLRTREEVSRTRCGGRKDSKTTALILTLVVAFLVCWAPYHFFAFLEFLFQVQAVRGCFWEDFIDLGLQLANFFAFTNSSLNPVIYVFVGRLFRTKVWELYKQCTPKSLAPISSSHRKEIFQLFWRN

Assay [4] has as its target T3, 5-hydroxytryptamine receptor 1A (Homo sapiens, UniProt P08908).
T3 sequence (P08908 whole entry): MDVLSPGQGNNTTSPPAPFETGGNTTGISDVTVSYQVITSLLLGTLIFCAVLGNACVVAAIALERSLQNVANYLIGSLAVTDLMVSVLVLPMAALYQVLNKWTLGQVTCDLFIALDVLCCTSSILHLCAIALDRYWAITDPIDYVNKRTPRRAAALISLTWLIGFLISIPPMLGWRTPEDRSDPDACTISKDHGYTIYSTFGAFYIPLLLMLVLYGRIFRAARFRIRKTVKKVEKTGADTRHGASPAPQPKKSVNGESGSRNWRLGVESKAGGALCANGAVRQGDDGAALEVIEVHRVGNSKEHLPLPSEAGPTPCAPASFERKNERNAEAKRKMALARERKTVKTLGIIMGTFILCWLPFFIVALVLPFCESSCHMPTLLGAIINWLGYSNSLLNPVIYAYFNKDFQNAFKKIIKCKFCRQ

In assay [5] the target is Neurotensin receptor type 1 (Homo sapiens, UniProt P30989).
In assay [6] the target is 5-hydroxytryptamine receptor 2B (Homo sapiens, UniProt P41595).
Assay [7] has as its target Beta-3 adrenergic receptor (Homo sapiens, UniProt P13945).
The target of assay [8] is Gamma-aminobutyric acid receptor subunit alpha-1 (Rattus norvegicus, UniProt P62813).
The target of assay [9] is T4, Muscarinic acetylcholine receptor M2 (Homo sapiens, UniProt P08172).
T4 sequence (P08172 whole entry): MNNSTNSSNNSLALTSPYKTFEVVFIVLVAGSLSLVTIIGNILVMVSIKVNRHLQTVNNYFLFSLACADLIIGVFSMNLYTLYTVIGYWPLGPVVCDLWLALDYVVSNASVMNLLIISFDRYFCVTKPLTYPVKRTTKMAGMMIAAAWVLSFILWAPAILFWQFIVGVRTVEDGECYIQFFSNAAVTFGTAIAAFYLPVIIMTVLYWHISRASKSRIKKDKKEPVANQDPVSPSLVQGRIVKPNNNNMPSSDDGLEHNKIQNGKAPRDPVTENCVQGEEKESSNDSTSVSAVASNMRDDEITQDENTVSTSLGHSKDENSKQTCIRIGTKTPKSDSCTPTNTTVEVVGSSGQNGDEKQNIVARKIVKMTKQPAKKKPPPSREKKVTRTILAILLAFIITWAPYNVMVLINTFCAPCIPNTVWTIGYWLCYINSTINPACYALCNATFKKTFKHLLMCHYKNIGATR

In assay [10] the target is T5, Alpha-1A adrenergic receptor (Homo sapiens, UniProt P35348).
T5 sequence (P35348 whole entry): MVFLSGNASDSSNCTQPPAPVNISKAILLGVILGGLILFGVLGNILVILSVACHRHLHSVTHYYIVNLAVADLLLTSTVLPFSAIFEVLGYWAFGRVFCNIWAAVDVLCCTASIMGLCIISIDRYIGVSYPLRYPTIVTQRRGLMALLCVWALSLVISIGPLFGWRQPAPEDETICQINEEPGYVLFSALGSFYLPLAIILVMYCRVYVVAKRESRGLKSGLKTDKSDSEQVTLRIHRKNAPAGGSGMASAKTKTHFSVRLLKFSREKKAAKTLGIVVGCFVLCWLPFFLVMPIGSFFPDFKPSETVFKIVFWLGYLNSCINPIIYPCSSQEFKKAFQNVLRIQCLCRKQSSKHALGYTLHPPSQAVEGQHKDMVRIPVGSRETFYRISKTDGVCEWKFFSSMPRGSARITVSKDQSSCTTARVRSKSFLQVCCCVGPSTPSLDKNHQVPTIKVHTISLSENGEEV

Structures are written as SMILES.
Also: assay procedure not described here.

Chain of Receptor tyrosine-protein kinase erbB-2 (P04626 whole entry): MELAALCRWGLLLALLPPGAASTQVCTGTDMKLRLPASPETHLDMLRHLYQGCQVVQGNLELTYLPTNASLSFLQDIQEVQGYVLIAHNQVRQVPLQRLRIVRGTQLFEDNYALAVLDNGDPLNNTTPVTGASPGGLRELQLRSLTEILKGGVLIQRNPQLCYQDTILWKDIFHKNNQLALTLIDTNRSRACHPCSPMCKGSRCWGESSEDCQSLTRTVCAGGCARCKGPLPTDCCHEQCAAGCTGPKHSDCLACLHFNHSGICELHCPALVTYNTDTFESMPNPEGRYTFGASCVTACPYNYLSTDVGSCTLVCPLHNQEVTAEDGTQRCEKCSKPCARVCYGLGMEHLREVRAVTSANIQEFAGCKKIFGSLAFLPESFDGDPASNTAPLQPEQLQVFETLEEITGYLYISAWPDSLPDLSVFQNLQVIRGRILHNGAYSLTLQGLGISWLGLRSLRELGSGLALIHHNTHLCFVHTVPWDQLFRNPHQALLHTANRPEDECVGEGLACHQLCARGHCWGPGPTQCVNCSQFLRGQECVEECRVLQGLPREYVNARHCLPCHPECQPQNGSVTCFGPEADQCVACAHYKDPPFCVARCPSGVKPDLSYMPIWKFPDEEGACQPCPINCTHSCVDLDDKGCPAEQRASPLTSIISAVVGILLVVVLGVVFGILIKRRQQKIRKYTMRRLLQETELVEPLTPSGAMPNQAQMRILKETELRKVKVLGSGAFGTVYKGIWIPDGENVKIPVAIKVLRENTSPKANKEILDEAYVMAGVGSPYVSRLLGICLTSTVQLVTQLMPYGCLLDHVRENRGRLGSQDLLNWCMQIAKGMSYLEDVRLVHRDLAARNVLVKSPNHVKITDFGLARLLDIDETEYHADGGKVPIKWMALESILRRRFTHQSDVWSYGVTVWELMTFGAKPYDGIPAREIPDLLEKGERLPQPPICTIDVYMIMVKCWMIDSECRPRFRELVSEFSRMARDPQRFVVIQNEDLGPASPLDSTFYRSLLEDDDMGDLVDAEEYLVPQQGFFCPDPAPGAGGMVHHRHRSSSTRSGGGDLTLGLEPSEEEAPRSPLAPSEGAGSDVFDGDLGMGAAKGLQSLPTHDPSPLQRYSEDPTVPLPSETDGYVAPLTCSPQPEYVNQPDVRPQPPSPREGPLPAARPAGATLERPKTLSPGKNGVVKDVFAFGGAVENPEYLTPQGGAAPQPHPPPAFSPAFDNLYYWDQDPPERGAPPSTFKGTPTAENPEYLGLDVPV
Chain of Neurotensin receptor type 1 (P30989 whole entry): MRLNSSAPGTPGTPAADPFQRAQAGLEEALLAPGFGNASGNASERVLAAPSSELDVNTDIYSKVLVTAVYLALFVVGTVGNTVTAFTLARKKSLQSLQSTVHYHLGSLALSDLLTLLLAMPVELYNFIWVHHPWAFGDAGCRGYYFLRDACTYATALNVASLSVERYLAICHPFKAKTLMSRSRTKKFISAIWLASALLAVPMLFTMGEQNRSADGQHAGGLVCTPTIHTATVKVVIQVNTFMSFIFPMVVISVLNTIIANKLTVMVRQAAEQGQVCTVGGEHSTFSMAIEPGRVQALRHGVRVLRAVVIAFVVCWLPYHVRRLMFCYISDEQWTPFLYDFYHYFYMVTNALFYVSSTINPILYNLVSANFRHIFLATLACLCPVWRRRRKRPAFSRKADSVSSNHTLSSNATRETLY
Chain of Gamma-aminobutyric acid receptor subunit alpha-1 (P62813 whole entry): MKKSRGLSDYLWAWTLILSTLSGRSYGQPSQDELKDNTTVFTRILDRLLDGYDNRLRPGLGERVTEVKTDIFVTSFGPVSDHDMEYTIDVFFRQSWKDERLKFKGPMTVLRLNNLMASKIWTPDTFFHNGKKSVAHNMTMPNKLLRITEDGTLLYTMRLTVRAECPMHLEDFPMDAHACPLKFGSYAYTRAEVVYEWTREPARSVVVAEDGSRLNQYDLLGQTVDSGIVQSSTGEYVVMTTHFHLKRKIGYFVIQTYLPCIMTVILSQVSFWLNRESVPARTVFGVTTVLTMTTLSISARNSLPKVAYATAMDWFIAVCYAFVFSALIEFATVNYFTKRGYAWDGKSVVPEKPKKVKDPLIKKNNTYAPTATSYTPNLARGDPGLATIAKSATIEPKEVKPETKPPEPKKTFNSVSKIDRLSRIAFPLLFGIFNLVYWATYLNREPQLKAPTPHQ
Chain of Beta-3 adrenergic receptor (P13945 whole entry): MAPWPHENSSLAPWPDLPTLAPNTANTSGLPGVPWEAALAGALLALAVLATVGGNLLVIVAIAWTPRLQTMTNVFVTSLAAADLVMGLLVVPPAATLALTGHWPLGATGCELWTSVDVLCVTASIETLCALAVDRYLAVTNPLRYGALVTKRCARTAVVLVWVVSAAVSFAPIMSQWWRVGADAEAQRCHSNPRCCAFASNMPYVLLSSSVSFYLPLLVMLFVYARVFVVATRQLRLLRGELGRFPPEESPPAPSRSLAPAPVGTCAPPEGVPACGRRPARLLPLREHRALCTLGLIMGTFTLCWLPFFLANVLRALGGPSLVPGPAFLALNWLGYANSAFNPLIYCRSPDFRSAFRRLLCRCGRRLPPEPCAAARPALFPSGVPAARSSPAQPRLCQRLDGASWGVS
Chain of 5-hydroxytryptamine receptor 2B (P41595 whole entry): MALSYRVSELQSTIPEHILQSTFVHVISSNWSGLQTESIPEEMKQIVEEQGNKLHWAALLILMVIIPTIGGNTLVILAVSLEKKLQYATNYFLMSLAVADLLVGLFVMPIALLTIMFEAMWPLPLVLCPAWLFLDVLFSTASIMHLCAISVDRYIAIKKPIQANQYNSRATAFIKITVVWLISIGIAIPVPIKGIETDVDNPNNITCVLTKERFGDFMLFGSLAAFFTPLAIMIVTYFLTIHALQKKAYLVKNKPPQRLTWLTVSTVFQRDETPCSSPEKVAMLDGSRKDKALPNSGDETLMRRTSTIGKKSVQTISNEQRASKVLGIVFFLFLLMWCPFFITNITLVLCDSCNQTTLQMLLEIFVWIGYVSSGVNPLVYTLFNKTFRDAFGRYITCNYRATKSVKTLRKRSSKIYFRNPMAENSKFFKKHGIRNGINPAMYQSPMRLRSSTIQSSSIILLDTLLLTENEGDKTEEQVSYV

Turning to `CN(C)CCC=C1c2ccccc2C(C)(C)c2ccccc21`, the AC50 in assay [1] is greater than 30 µM; in [2], 0.129 µM.

For `Cc1ccc(-c2cc(C(F)(F)F)nn2-c2ccc(S(N)(=O)=O)cc2)cc1` [CELECOXIB], the concentration at half-maximal activity (AC50) is greater than 30 µM in assay [3]; greater than 10 µM in [4]; greater than 30 µM in assay [5]; greater than 10 µM in assay [6]; 5.2 µM in assay [7]; greater than 10 µM in [8]. Also, the half-maximal activity concentration (AC50) in [9] and in [10] was greater than 10 µM in each case.

Regarding `CN(C)CCC(c1ccc(Cl)cc1)c1ccccn1` (configuration not stated) [CHLORPHENIRAMINE], the AC50 in [3] is greater than 30 µM; in assay [4] it was greater than 10 µM; in assay [5], greater than 30 µM; in [6], 4.06 µM; in assay [7] it was greater than 30 µM; in assay [8], greater than 10 µM. Moreover, the results for the AC50 in assay [9] and in assay [10] were 5.52 µM and greater than 10 µM, respectively.

Regarding `O=C(OCC(O)CO)c1ccccc1Nc1ccnc2cc(Cl)ccc12` (configuration not stated) [GLAFENINE], the AC50 in assay [1] and in assay [2] was greater than 30 µM each time.

Turning to `CCC(C)n1ncn(-c2ccc(N3CCN(c4ccc(OCC5COC(Cn6cncn6)(c6ccc(Cl)cc6Cl)O5)cc4)CC3)cc2)c1=O` (configuration not stated) [ITRACONAZOLE], the AC50 was greater than 30 µM in [3]; greater than 10 µM in assay [4]; greater than 30 µM in [5]; greater than 10 µM in [6]; greater than 30 µM in assay [7]; greater than 30 µM in assay [8]. Besides, the AC50 in assay [9] and in assay [10] was greater than 10 µM throughout.

Turning to `c1ccc([C@H]2CN3CCSC3=N2)cc1` [LEVAMISOLE], the AC50 in assay [1] and in assay [8] was greater than 30 µM each time.

In the case of `C[C@H]1CNCCc2ccc(Cl)cc21` [LORCASERIN], the AC50 in assay [1] and in assay [2] was greater than 30 µM in each case.

In the case of `C[C@@H](O)[C@H]1C(=O)N2C(C(=O)O)=C(S[C@@H]3CN[C@H](C(=O)N(C)C)C3)[C@H](C)[C@H]12` [MEROPENEM], the AC50 in [1] was greater than 300 µM; in [8] it was greater than 10 µM.

On to `CNC1Cc2ccccc2N(C)c2ccccc21` (configuration not stated) [METAPRAMINE], for which the half-maximal activity concentration (AC50) in assay [1] and in assay [2] was greater than 30 µM each time.

With `COc1ccc(CC(C)(C)NC[C@H](O)c2cc(O)cc3c2OCC(=O)N3)cc1` [OLODATEROL], the half-maximal activity concentration (AC50) in assay [1] and in assay [2] was greater than 30 µM each time.

In the case of `C1CCC(C(CC2CCCCN2)C2CCCCC2)CC1` (configuration not stated) [PERHEXILINE], the half-maximal activity concentration (AC50) in assay [1] is greater than 30 µM.

As to `c1cnc(N2CCN(Cc3ccc4c(c3)OCO4)CC2)nc1` [PIRIBEDIL], the AC50 in assay [1] and in assay [2] was greater than 30 µM in each case.

On to `CS(=O)(=O)c1ccc(C2=C(c3ccccc3)C(=O)OC2)cc1` [ROFECOXIB], for which the AC50 was greater than 30 µM in [3]; greater than 10 µM in [4]; greater than 30 µM in [5]; greater than 10 µM in assay [6]; greater than 30 µM in assay [7]; greater than 10 µM in assay [8]. In addition, the AC50 in assay [9] and in [10] was greater than 10 µM throughout.

Consider `Cc1cn([C@H]2C=C[C@@H](CO)O2)c(=O)[nH]c1=O` [STAVUDINE], for which the concentration at half-maximal activity (AC50) in assay [3] was greater than 30 µM; in [4], greater than 10 µM; in [5] it was greater than 30 µM; in [6] it was greater than 10 µM; in [7], greater than 30 µM; in [8], greater than 10 µM. The concentration at half-maximal activity (AC50) in [9] and in assay [10] was greater than 10 µM throughout.

On to `Clc1ccc2nsnc2c1NC1=NCCN1` [TIZANIDINE], for which the AC50 in assay [3] is greater than 30 µM; in [4], greater than 10 µM; in assay [5], greater than 30 µM; in assay [2] it was greater than 10 µM; in assay [6] it was greater than 10 µM; in [7], greater than 30 µM. In addition, the AC50 in assay [8] was greater than 10 µM; in [9], greater than 10 µM; in assay [10], 1.92 µM.

Regarding `N[C@@H]1[C@H]2CN(c3nc4c(cc3F)c(=O)c(C(=O)O)cn4-c3ccc(F)cc3F)C[C@@H]12` [TROVAFLOXACIN], the AC50 in [1] was greater than 30 µM.
